Measurements published in paper PMC3268748, “A novel cold-active β-D-galactosidase from the Paracoccus sp. 32d - gene cloning, purification and characterization” (Microbial Cell Factories, 2011).
Read-outs that look alike come from different tables or passages of the source.

Target: T1, BgaL; Paracoccus sp. 32d β-D-galactosidase (Paracoccus sp. 32d, UniProt D1LZK0)
T1 construct: E. coli LMG194, pBAD/Myc-His A with native stop codon (no tag), ion exchange purified; homodimer 161 kDa; GH2
T1 sequence (D1LZK0 1-731): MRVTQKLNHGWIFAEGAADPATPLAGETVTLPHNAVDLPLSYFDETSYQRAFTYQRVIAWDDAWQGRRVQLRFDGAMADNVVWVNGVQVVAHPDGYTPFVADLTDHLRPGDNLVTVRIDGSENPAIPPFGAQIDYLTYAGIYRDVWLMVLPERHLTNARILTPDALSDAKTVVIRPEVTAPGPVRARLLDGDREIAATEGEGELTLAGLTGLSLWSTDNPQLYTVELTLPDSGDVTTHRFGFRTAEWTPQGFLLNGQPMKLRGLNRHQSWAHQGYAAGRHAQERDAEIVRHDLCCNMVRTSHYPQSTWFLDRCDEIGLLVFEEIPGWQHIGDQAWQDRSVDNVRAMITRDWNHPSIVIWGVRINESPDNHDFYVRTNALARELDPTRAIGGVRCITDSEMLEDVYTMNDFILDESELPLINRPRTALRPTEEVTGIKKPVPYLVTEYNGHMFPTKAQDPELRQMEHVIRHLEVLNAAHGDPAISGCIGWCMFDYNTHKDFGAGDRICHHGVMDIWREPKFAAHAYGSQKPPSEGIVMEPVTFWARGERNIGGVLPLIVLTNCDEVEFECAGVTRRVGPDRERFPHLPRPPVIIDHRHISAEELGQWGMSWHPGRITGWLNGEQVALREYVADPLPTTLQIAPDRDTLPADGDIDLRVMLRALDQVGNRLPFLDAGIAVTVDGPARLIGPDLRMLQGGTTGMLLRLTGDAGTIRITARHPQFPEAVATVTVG
Experiment: relative activity with added sugar
Assay type: biochemical

Compound `OC[C@H]1OC(O)[C@H](O)[C@@H](O)[C@H]1O` (some centres unmarked) [galactose] has an activity at 100000 µM (read-out: Relative activity (%) / Galactose) of 52 ± 1%.
For `OC[C@H]1OC(O)[C@H](O)[C@@H](O)[C@@H]1O` (some centres unmarked) [glucose], the activity at 100000 µM (read-out: Relative activity (%) / Glucose) was 38 ± 2%.
